Test results taken from patent publication US8901337B2, “Metal complexes having dual histone deacetylase inhibitory and DNA-binding activity” (Royal College of Surgeons in Ireland, priority 2009, dated 2014).

Legend:
[1] = system: closed circular supercoiled pUC19 plasmid DNA; experiment: DNA unwinding, agarose gel mobility shift assay; assay type: binding; conditions: 37° C., 48 h, range of concentrations
Method: Platinum compounds, such as cisplatin, that unwind the DNA duplex reduces the number of supercoils in closed circular DNA so that their number decreases. This decrease upon binding of unwinding agents causes a decrease in the rate of migration of DNA through agarose gel. Unwinding of closed circular supercoiled pUC19 plasmid DNA incubated with cis-[Pt^II(NH3)2(malSAHA−2H)] was assayed by an agarose gel mobility shift assay. Samples of plasmid DNA were incubated with platinum complexes at 37° C. in the dark for 48 h. All samples were subjected to electrophoresis on 1% native agarose gel running at 25° C. with TAE buffer and the voltage set at 25 V. The gels were then stained with EtBr, followed by photography with transilluminator.^16

[2] = system: caspase-3 activation in A2780 cisR cells; experiment: Caspase-3 colourimetric assay, A2780 cisR; assay type: cell-based, human; conditions: 72 hr, IC50 and IC75, FIG. 21
Method: (§1) Both floating and attached cells were collected by centrifugation. Cells, at a density of 1.5×10^6 cells/ml were washed with PBS and then re-suspended in chilled cell lysis buffer (supplied in the Caspase-3 colourimetric assay kit, Calbiochem, UK). Cells were incubated on ice for 10 min and then centrifuged for 1 min at 10,000 g. The cytosolic fraction (supernatant) was collected into a fresh tube and 50 μl (2 mg/ml) of each protein sample was transferred to a 96 well plate and diluted with lysis buffer. A 50 μl aliquot of X2 reaction buffer, containing 10 mM DTT was added, followed by 5 μl of 4 mM DEVD-pNA substrate to give a final concentration of 200 μM. The plate was then incubated at 37° C. for 1-2 h. OD was determined at 400 nm using an Anthos HT-II microtitreplate reader. The fold increase in caspase-3 and -9 activities was determined by comparing results to that obtained with un-induced control.

[3] = system: caspase-9 activation in A2780 P cells; experiment: Caspase-9 assay, A2780 P; assay type: cell-based, human; conditions: 72 hr, IC50 and IC75, FIG. 22
Method: as §1

[4] = system: A2780 P cells; experiment: Inhibition of DNA synthesis, BrdU incorporation assay, A2780 P; assay type: cell-based, human; conditions: 72 hr, FIG. 18
Method: DNA synthesis was determined using 5-bromo-2-deoxyuridine (BrdU) colourimetric incorporation assay.^18 A2780 P and A2780 cisR cells were seeded into 96 well plates and allowed to adhere overnight. All test agents were added and incubated for 72 hr prior to the addition of BrdU (10 μM per well). Plates were then incubated at 37° C. for 4 h and incorporation was quantified by ELISA (Calbiochem).

[5] = system: caspase-9 activation in A2780 cisR cells; experiment: Caspase-9 assay, A2780 cisR; assay type: cell-based, human; conditions: 72 hr, IC50 and IC75, FIG. 23
Method: as §1

Row | Structure (SMILES) | unwinding of negatively supercoiled pUC19 plasmid DNA (DNA binding) [1] | caspase-3 activity [2] | caspase-9 activity [3] | effect on DNA synthesis, BrdU incorporation [4] | caspase-9 activity [5]
1 | [NH2][Pt]1([NH2])[O]C(=O)C(Cc2ccc(NC(=O)CCCCCCC(=O)NO)cc2)C(=O)[O]1 [cis-[Pt(NH3)2(malSAHA−2H)], cis-[Pt(NH3)2(malSAHA−2H)].3H2O] | can induce unwinding in negatively supercoiled pUC19 plasmid DNA | – | – | – | –
2 | [NH2][Pt]1([NH2])[O]C(=O)C(Cc2ccc(NS(=O)(=O)c3ccc(/C=C/C(=O)NO)cc3)cc2)C(=O)[O]1 [cis-[Pt(NH3)2(malBel−2H)], cis-[Pt(NH3)2(malBel−2H)].1.5H2O] | – | an increase in both Caspase-3 and -9 activities | an increase in both Caspase-3 and -9 activities | dose-dependant decrease in DNA synthesis | an increase in both Caspase-3 and -9 activities
